How the values were obtained:
[1] = system: Parkinson's disease model cynomolgus monkeys (MPTP); experiment: Test Example 1: NDSs after administration of Compound (I) alone in MPTP Parkinson's disease model monkeys; assay type: in vivo; parameters: key to Subgroup 2: Specific motor functions score: specific motor functions subscore, range 0-21
Description: The therapeutic effect of Compound (I) on Parkinson's disease was examined using Parkinson's disease model animals which are produced by administering MPTP (1-methyl-4-phenyl-1,2,3,6-tetrahydropyridine).
MPTP was administered to male cynomolgus monkeys at the age of 4 to 5 to make Parkinson's disease model cynomolgus monkeys. MPTP was additionally administered to animals with neurologic deficit scores (Neurological deficit scores: NDSs, Schneider et al., “Development of levodopa-induced dyskinesias in parkinsonian monkeys may depend upon rate of symptom onset and/or duration of symptoms”, Brain Res., 2003, 990:38-44.) of less than 25.
Eight Parkinson's disease model cynomolgus monkeys were randomized into 5 groups of approximately equal mean and variance in terms of Parkinson behavior rating (Tremor score) and body weight. On subsequent cycle 2, cycle 3, cycle 4 and cycle 5, the animals were crossed over to receive the other treatments. A wash out period of one week or more was set between each cycle.
By the end of the study, each animal had received all the five treatments. Istradefylline is an adenosine A2A receptor antagonist approved as a drug for improving a wearing off phenomenon in Parkinson's disease being treated with a levodopa-containing preparation in the United States of America and Japan (Patent Literature 4). As a vehicle, an aqueous solution containing 0.43% (w/v) methyl cellulose 400, 10% (v/v) dimethyl sulfoxide (DMSO), and 4.5% (w/v) Cremophor (R) was used.
Before the administration, and 1 hr., 4 hrs., and 24 hrs. after the administration of the test substances, the NDSs of the monkeys were evaluated. The evaluation items are as follows. The behavior evaluation was performed in a blinded manner. The NDSs of the groups were compared using Steel's test. The p-values of less than 0.05 were considered to be statistically significant.
Subgroup 1: generalized behaviors (0-32) • 1.1a Appetite • 0: Normal • 1: Up to 30% food left • 2: Up to 65% food left • 3: Greater than 65% food left • 1.1b Response to offered food • 0: Responds to offered food • 1: Inconsistent response to offered food • 2: Little to no interest in offered food • 1.2 Overall activity • 0: Normal • 1: Mild hypokinesia; decrease in spontaneous movement • 2: Moderate hypokinesia; sparse spontaneous movement • 3: Severe hypokinesia; no spontaneous movement; tends to remain in one place • 1.3 Appearance • 0: Normal • 1: Mild but noticeable decrease in self-maintenance • 2: Moderate decrease in self-maintenance • 3: Severe lack of self-maintenance • 1.4 Posture • 0: Normal • 1: Minor flexing or stooping • 2: Moderate flexing or stooping; head and upper body almost parallel to floor of cage • 3: Severe flexing or stooping; head lowered to feet • 1.5 Balance • 0: Normal • 1: Mild loss on arising or movement • 2: Moderate loss on arising or movement; occasionally falls or supports self to keep from falling • 3: Severe loss of balance; falls • 1.6 Climbing • 0: Climbing observed with no delays in initiation/execution • 1: Mild deficit in ability to climb and support weight • 2: Moderate deficit in ability to climb and support weight; tends to ‘slide down’ • 3: Absence of any climbing behavior • 1.7 Tremor • 0: Absent • 1: Slight and intermittent • 2: Slight and persistent or moderate and intermittent • 3: Moderate/severe and persistent • 1.8 Freezing during movement • 0: Absent • 1: Occasional freezing for brief periods • 2: Occasional freezing for prolonged periods or frequent freezing for brief periods • 3: Prolonged and frequent freezing • 1.9 Facial expression • 0: Normal • 1: Mild hypomimia • 2: Moderate hypomimia • 3: Severe, masked fixed faces • 1.10 Defense reaction • 0: Normal • 1: Mild, noticeable reduction in reaction or slowed reaction, but can be provoked to react • 2: Moderate reduction in reaction; can produce facial display but not body reaction • 3: Little to no response
Subgroup 2: Specific Motor Functions (0-21)

[2] = system: mouse kindling model; conditions: anti-seizure effect (ED50) in mouse kindling model versus neurotoxic effect (TD50) in rotarod test; compared with a control compound; cited from earlier work
[3] = Compound (I) high dose 50 mg/kg (G4), 1 hr. after administration
[4] = Compound (I) high dose 50 mg/kg (G4), 4 hrs. after administration
[5] = Compound (I) high dose 50 mg/kg (G4), 24 hrs. after administration
[6] = Compound (I) high dose 50 mg/kg (G4), Pre (before administration)
[7] = Compound (I) low dose 5 mg/kg (G2), 1 hr. after administration
[8] = Compound (I) low dose 5 mg/kg (G2), 4 hrs. after administration
[9] = Compound (I) low dose 5 mg/kg (G2), 24 hrs. after administration
[10] = Compound (I) low dose 5 mg/kg (G2), Pre (before administration)
[11] = Compound (I) middle dose 15 mg/kg (G3), 1 hr. after administration
[12] = Compound (I) middle dose 15 mg/kg (G3), 4 hrs. after administration
[13] = Compound (I) middle dose 15 mg/kg (G3), 24 hrs. after administration
[14] = Compound (I) middle dose 15 mg/kg (G3), Pre (before administration)

NS(=O)(=O)N[C@H]1c2c(F)cc(F)cc2CC1(F)F [Compound (I), N-[(1S)-2,2,5,7-tetrafluoro-2,3-dihydro-1H-inden-1-yl]sulfamide]
Subgroup 1: GENERALIZED BEHAVIORS score [1, 3]: 17.1 ± 0.8 | Subgroup 2: Specific motor functions score [1, 3]: 12.0 ± 0.5 | Total score of NDSs [1, 3]: 29.1 ± 1.3 | Tremor score [1, 3]: 1.6 ± 0.2 | Subgroup 1: GENERALIZED BEHAVIORS score [1, 4]: 14.8 ± 1.0 | Subgroup 2: Specific motor functions score [1, 4]: 9.9 ± 0.5 | Total score of NDSs [1, 4]: 24.6 ± 1.3 | Tremor score [1, 4]: 1.1 ± 0.1 | Subgroup 1: GENERALIZED BEHAVIORS score [1, 5]: 17.3 ± 1.1 | Subgroup 2: Specific motor functions score [1, 5]: 12.0 ± 0.6 | Total score of NDSs [1, 5]: 29.3 ± 1.6 | Tremor score [1, 5]: 1.4 ± 0.2 | Subgroup 1: GENERALIZED BEHAVIORS score [1, 6]: 19.0 ± 0.8 | Subgroup 2: Specific motor functions score [1, 6]: 13.5 ± 0.4 | Total score of NDSs [1, 6]: 32.5 ± 1.1 | Tremor score [1, 6]: 2.1 ± 0.1 | Subgroup 1: GENERALIZED BEHAVIORS score [1, 7]: 16.1 ± 0.9 | Subgroup 2: Specific motor functions score [1, 7]: 11.5 ± 0.6 | Total score of NDSs [1, 7]: 27.6 ± 1.5 | Tremor score [1, 7]: 1.8 ± 0.2 | Subgroup 1: GENERALIZED BEHAVIORS score [1, 8]: 16.0 ± 0.7 | Subgroup 2: Specific motor functions score [1, 8]: 12.5 ± 0.3 | Total score of NDSs [1, 8]: 28.5 ± 1.0 | Tremor score [1, 8]: 1.8 ± 0.2 | Subgroup 1: GENERALIZED BEHAVIORS score [1, 9]: 17.1 ± 0.8 | Subgroup 2: Specific motor functions score [1, 9]: 11.9 ± 0.4 | Total score of NDSs [1, 9]: 29.0 ± 1.0 | Tremor score [1, 9]: 2.1 ± 0.1 | Subgroup 1: GENERALIZED BEHAVIORS score [1, 10]: 17.4 ± 0.8 | Subgroup 2: Specific motor functions score [1, 10]: 13.3 ± 0.5 | Total score of NDSs [1, 10]: 30.6 ± 1.1 | Tremor score [1, 10]: 2.0 ± 0.0 | Subgroup 1: GENERALIZED BEHAVIORS score [1, 11]: 15.5 ± 1.0 | Subgroup 2: Specific motor functions score [1, 11]: 12.3 ± 0.5 | Total score of NDSs [1, 11]: 27.8 ± 1.5 | Tremor score [1, 11]: 1.6 ± 0.2 | Subgroup 1: GENERALIZED BEHAVIORS score [1, 12]: 15.0 ± 0.8 | Subgroup 2: Specific motor functions score [1, 12]: 11.5 ± 0.4 | Total score of NDSs [1, 12]: 26.5 ± 1.0 | Tremor score [1, 12]: 1.6 ± 0.2 | Subgroup 1: GENERALIZED BEHAVIORS score [1, 13]: 16.8 ± 0.9 | Subgroup 2: Specific motor functions score [1, 13]: 12.8 ± 0.3 | Total score of NDSs [1, 13]: 29.5 ± 1.1 | Tremor score [1, 13]: 1.8 ± 0.2 | Subgroup 1: GENERALIZED BEHAVIORS score [1, 14]: 17.3 ± 0.6 | Subgroup 2: Specific motor functions score [1, 14]: 12.9 ± 0.4 | Total score of NDSs [1, 14]: 30.1 ± 0.9 | Tremor score [1, 14]: 2.0 ± 0.0 | therapeutic index (TD50/ED50) [2]: higher

Source: patent US20250195457A1, “PHARMACEUTICAL COMPOSITION FOR TREATMENT OF PARKINSON'S DISEASE” (Eisai R&D Management Co., Ltd., priority 2022, published 2025)
